The values that follow come from BindingDB's records for doi:10.7270/Q2TX3CTT (Broad Institute, 2010).

Structures can show the parent of a compound that is named as a salt.

In this test the target is Glycogen synthase kinase-3 beta (Homo sapiens, UniProt P49841). Nature of the test: concentration-response blocking of human GSK3B – biochemical, luminescence, cell-free homogeneous, retest, dose response (AID 434954).
Chain of Glycogen synthase kinase-3 beta (P49841 whole entry): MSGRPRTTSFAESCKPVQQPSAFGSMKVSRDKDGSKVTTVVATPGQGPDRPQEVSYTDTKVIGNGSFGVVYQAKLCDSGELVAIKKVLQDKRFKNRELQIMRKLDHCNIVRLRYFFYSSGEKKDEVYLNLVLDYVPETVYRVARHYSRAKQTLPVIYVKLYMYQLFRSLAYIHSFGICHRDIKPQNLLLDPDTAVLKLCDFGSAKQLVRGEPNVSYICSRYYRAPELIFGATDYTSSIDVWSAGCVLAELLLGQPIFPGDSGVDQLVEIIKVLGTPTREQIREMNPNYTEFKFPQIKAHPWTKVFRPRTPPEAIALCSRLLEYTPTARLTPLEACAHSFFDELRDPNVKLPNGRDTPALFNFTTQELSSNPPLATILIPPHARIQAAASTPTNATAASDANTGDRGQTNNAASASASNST
Broadly, the EC50 is the concentration that produces a half-maximal response. `COc1ccc(OC)c(C(=O)c2coc3ccc(O)cc23)c1` [(2,5-dimethoxyphenyl)-(5-hydroxy-1-benzofuran-3-yl)methanone] gave an EC50 of more than 300 µM.

In the case of `Nc1ccc2oc(-c3ccccc3Cl)cc(O)c-2c1=O` [6-amino-2-(2-chlorophenyl)-5-hydroxy-1-benzopyran-4-one], the EC50 is more than 300 µM.

`CSc1nc(NCc2ccco2)c2c3c(sc2n1)CN(C)CC3` [MLS000082597]: the EC50 amounted to 30.2 µM.

`O=C1N=c2cc(Cl)ccc2=C1NNc1ccc(C(=O)O)cc1` [MLS000759696] registered an EC50 of 19.1 µM.

In turn, `CC1=NN(C(=O)CCc2ccc3c(c2)OCO3)C(O)(C(F)(F)F)C1` (configuration not stated) [SMR000289779] yielded an EC50 of more than 300 µM.

As to `CC(=O)c1coc2ccc(OCC(=O)O)cc12` [2-[(3-acetyl-5-benzofuranyl)oxy]acetic acid], the midpoint of the response, the EC50, lay at 56.6 µM.

In turn, `Cc1ccccc1NC(=O)CN1C(=O)c2ccccc2C1=O` [2-[1,3-bis(oxidanylidene)isoindol-2-yl]-N-(2-methylphenyl)ethanamide] returned an EC50 of more than 300 µM.

In turn, `CCOC(=O)C=C(C)[N+]1=N[C-](c2ccc(OC)cc2)CC1c1cccc([N+](=O)[O-])c1` (configuration not stated) [(Z)-3-[5-(4-methoxyphenyl)-3-(3-nitrophenyl)-3,4-dihydropyrazol-2-yl]-2-butenoic acid ethyl ester] showed an EC50 of more than 300 µM.

As to `O=C(NN=Cc1ccc(-c2ccc(Cl)c(C(=O)O)c2)o1)c1cc2c(ccc3ccccc32)o1` [5-[5-[(benzo[e][1]benzofuran-2-carbonylhydrazinylidene)methyl]furan-2-yl]-2-chlorobenzoic acid], the EC50 is more than 300 µM.

Consider `Nc1nonc1-n1nnc(C(=O)NN=Cc2ccc(Br)cc2)c1CN1CCOCC1` [SMR000646504], for which the EC50 is more than 300 µM.

Compound `Cc1ccc(C(=O)/C=C/c2ccc3ncccc3c2)cc1` [SMR000516943] gave an EC50 of more than 300 µM.

For `Cc1ccc(SCC(=O)Nc2ccc3c(c2)C(=O)NC3=O)cc1` [N-[1,3-bis(oxidanylidene)isoindol-5-yl]-2-(4-methylphenyl)sulfanyl-ethanamide], the EC50 is more than 300 µM.

With `COCCn1c(SCC(=O)NC(=O)NC(C)(C)C)nc2ccccc21`, the EC50 is more than 300 µM.

In the case of `CCn1nc(NC(=O)C2CCCO2)c2cc3cc(C)ccc3nc21` (configuration not stated) [N-(1-ethyl-6-methyl-pyrazolo[3,4-b]quinolin-3-yl)oxolane-2-carboxamide], the EC50 is more than 300 µM.

With `CCn1c(=O)cc(OCC(=O)N(C)c2ccccc2F)c2ccccc21` [2-(1-ethyl-2-oxidanylidene-quinolin-4-yl)oxy-N-(2-fluorophenyl)-N-methyl-ethanamide], the EC50 was more than 300 µM.

The compound `Cc1ccc2c(c1)NC(c1cccs1)C1C(=O)CC(C)(C)CC1=N2` (configuration not stated) [3,9,9-trimethyl-6-thiophen-2-yl-6,8,10,11-tetrahydro-5H-benzo[b][1,4]benzodiazepin-7-one] came in with an EC50 of more than 300 µM.

As for `O=C1C[C@@H](c2ccc(O)c(O)c2)Oc2cc(O)cc(O)c21` [2-[3,4-bis(oxidanyl)phenyl]-5,7-bis(oxidanyl)-2,3-dihydrochromen-4-one], the EC50 was more than 300 µM.

The compound `c1ccc(CCNCC2COc3ccccc3O2)cc1` (configuration not stated) showed an EC50 of more than 300 µM.

Turning to `COc1ccc(NC(=O)NC2CCCc3ccccc32)cc1` (configuration not stated) [SMR000678136], the half-maximal effective concentration (EC50) is more than 300 µM.

With `Oc1ccc(CN=Nc2ccc(C(F)(F)F)cn2)cc1O` [(4Z)-2-hydroxy-4-[[2-[5-(trifluoromethyl)pyridin-2-yl]hydrazinyl]methylidene]cyclohexa-2,5-dien-1-one], the EC50 is 16.1 µM.

`O=C1N=C(S)SC1=Cc1ccc(N2CCOCC2)o1` returned an EC50 of 8.5 µM.

Consider `CN(C)C=NC(=O)C(C#N)C1=Nc2ccccc2CC1` (configuration not stated), for which the EC50 stood at 20.1 µM.

Compound `OCCCNc1nccc(-c2cc(Nc3cccc(Cl)c3)ncn2)n1` [3-[[4-[6-[(3-chlorophenyl)amino]pyrimidin-4-yl]pyrimidin-2-yl]amino]propan-1-ol] showed a half-maximal effective concentration (EC50) of 0.0779 µM.

As to `COc1ccc(C(=O)c2sc(Nc3ccccc3)nc2N)cc1`, the EC50 was determined as 1.04 µM.

Regarding `CC1CCN(Cc2c(C(=O)NN=Cc3ccccc3O)nnn2-c2nonc2N)CC1` [SMR000620333], the EC50 stood at 0.7 µM.

`O=C(Nc1ccccn1)C(=O)Nc1ccccn1` [N,N'-dipyridin-2-ylethanediamide] registered a half-maximal effective concentration (EC50) of more than 300 µM.

`COc1ccc(-c2c(C)oc3ccc(C)cc23)cc1` [MLS000562305]: the EC50 is more than 300 µM.

The compound `COc1cc(C2OCC3C(c4cc(OC)c(OC)c(OC)c4)OCC23)cc(OC)c1OC` (configuration not stated) had an EC50 of more than 300 µM.

As to `Cc1nnc(SCC(=O)Nc2nccs2)n(N)c1=O` [SMR000323668], the EC50 is more than 300 µM.

`COC(=O)CSc1ccc2nnc(-c3ccc(F)cc3)n2n1` [methyl 2-[[3-(4-fluorophenyl)-[1,2,4]triazolo[4,3-b]pyridazin-6-yl]sulfanyl]ethanoate] yielded an EC50 of 9.3 µM.

In turn, `CC(C)CCNc1nc(N)c([N+](=O)[O-])c(NCC2CCCO2)n1` (configuration not stated) [SMR000220274] had an EC50 of 1.43 µM.

In turn, `Fc1ccc(CSc2nnc(-c3cccs3)o2)cc1` [SMR000003242] came in with an EC50 of more than 300 µM.

In the case of `O=C(O)Cn1c(=O)c2c3c(sc2n(Cc2ccccc2F)c1=O)CCCC3` [SMR000544593], the half-maximal effective concentration (EC50) was more than 300 µM.

With `O=C(Cc1ccc(F)cc1)NN=Cc1ccc(-c2ccc(Cl)c(C(=O)O)c2)o1`, the EC50 was more than 300 µM.

`COc1ccc(-c2nn(-c3ccccc3)cc2CO)cc1OC` [MLS000110763]: the EC50 was more than 300 µM.

As to `COc1ccccc1Oc1coc2c(CN(C)C)c(O)ccc2c1=O` [8-[(dimethylamino)methyl]-7-hydroxy-3-(2-methoxyphenoxy)chromen-4-one], the EC50 is more than 300 µM.

Regarding `CC1(C)CC(=O)C=C(Nc2ccccc2F)C1` [SMR000105669], the 50% effective concentration (EC50) was more than 300 µM.

Take `COc1ccc(-c2cc(=O)oc3c(C)c(O)ccc23)cc1` [7-hydroxy-4-(4-methoxyphenyl)-8-methylchromen-2-one]: the concentration for a half-maximal effect (EC50) is more than 300 µM.

For `CN(Cc1c(C(=O)NN=Cc2ccccc2F)nnn1-c1nonc1N)c1ccccc1` [MLS001141029], the EC50 was more than 300 µM.

`Cc1n[nH]c2c1[C@@H](c1ccccc1[N+](=O)[O-])C(C#N)C(=N)O2` (stereo partly drawn) [(4S)-6-azanyl-3-methyl-4-(2-nitrophenyl)-2,4-dihydropyrano[2,3-c]pyrazole-5-carbonitrile] returned an EC50 of 9.65 µM.

Take `CCSc1ccc2nnc(-c3ccc(F)cc3)n2n1` [SMR000028943]: the EC50 is 2.82 µM.

The compound `COc1ccc(Nc2nc(N)c(C(=O)c3ccc(OC)cc3)s2)cc1` [{4-amino-2-[(4-methoxyphenyl)amino]-1,3-thiazol-5-yl}(4-methoxyphenyl)methanone] displayed a 50% effective concentration (EC50) of 0.313 µM.

For `CN(C)Cc1c(C(=O)NN=Cc2ccncc2)nnn1-c1nonc1N`, the EC50 came out at 6.17 µM.

`Cc1cc(OCC(O)CNC(C)c2ccccc2)ccc1C(C)C` (configuration not stated) [1-(3-methyl-4-propan-2-ylphenoxy)-3-(1-phenylethylamino)-2-propanol;hydrochloride] yielded a half-maximal effective concentration (EC50) of more than 300 µM.

With `CC(C)CNc1nc(N)c([N+](=O)[O-])c(N2CCCCCC2)n1` [6-(azepan-1-yl)-N2-(2-methylpropyl)-5-nitro-pyrimidine-2,4-diamine], the EC50 worked out at 98 µM.

`COc1nc(NCCN2CCOCC2)nc(Nc2ccc([N+](=O)[O-])cc2)n1` yielded an EC50 of more than 300 µM.

Compound `CCOc1ccc(CN=Nc2ccccn2)cc1OC` [MLS001005584] yielded an EC50 of more than 300 µM.

With `COc1cccc(Nc2ncc(C#N)c(N)n2)c1` [MLS000858965], a half-maximal response (EC50) required 14.3 µM.

Compound `COc1ccc(OC)c(C(=O)c2coc3ccc(OCC(=O)O)cc23)c1` [SMR000135205] came in with an EC50 of more than 300 µM.

For the compound `Cc1cccc(C(=O)NCC(c2ccco2)N2CCc3ccccc32)c1` (configuration not stated) [MLS001237444], the EC50 is more than 300 µM.

As to `N#Cc1c(-c2ccccc2)nc(-c2cccnc2)[nH]c1=O` [MLS001165441], the EC50 is more than 300 µM.

Turning to `COC(=O)c1cn(NC(=O)c2cccnc2)c(=O)c2ccccc12` [1-keto-2-nicotinamido-isoquinoline-4-carboxylic acid methyl ester], the EC50 is more than 300 µM.

In turn, `COc1ccc2nc(NC(=O)C3CCCO3)sc2c1` (configuration not stated) [N-(6-methoxy-1,3-benzothiazol-2-yl)-2-oxolanecarboxamide] gave an EC50 of more than 300 µM.

Turning to `CC(N=O)c1ncc(C(F)(F)F)cc1Cl` (configuration not stated) [MLS000763457], the EC50 is more than 300 µM.

The compound `COc1ccccc1NC(=S)NC1CCCCCCCCCCC1` [SMR000460399] gave an EC50 of more than 300 µM.

For `Oc1cc(SC(=Nc2ccccc2)Nc2ccccc2)c(O)n1-c1cccc2ccccc12` [MLS000558765], the EC50 is more than 300 µM.

With `Cc1ccc(NC(=O)C2CCN(S(=O)(=O)c3ccc4c(c3)NC(=O)C(C)S4)CC2)c(Cl)c1` (configuration not stated) [SMR000630224], the EC50 is more than 300 µM.

The compound `CCCN(CCC)Cc1c(C(=O)NN=C/C(C)=C\c2ccccc2)nnn1-c1nonc1N` [1-(4-azanyl-1,2,5-oxadiazol-3-yl)-5-[(dipropylamino)methyl]-N-[[(Z)-2-methyl-3-phenyl-prop-2-enylidene]amino]-1,2,3-triazole-4-carboxamide] showed a concentration giving a half-maximal response (EC50) of more than 300 µM.

In turn, `CC1(C)CC(=O)C=C(Nc2ccc(F)cc2F)C1` showed an EC50 of more than 300 µM.

Take `O=C(Nc1ccccn1)Nc1ccccc1Cl`: the half-maximal effective concentration (EC50) is more than 300 µM.

Compound `O=C(N[N-][CH+]c1ccc(N2CCCC2)c([N+](=O)[O-])c1)c1cccnc1` [N-[(3-nitro-4-pyrrolidin-1-ylphenyl)methylideneamino]pyridine-3-carboxamide] showed an EC50 of more than 300 µM.

In turn, `Cc1ccc(S(=O)(=O)NCC2COc3ccccc3O2)cc1` (configuration not stated) [N-(2,3-Dihydro-benzo[1,4]dioxin-2-ylmethyl)-4-methyl-benzenesulfonamide] showed an EC50 of more than 300 µM.

Compound `O=S1(=O)CC2SC(=S)N(c3ccccc3)C2C1` (configuration not stated) registered an EC50 of more than 300 µM.

In turn, `CNc1nc(N)c([N+](=O)[O-])c(Nc2cccc(F)c2)n1` [SMR000436035] registered an EC50 of 12.4 µM.

The compound `O=c1[nH]nc(SCCS(=O)(=O)c2ccc(F)cc2)n1-c1ccc2c(c1)OCCO2` [SMR000456167] gave a concentration giving a half-maximal response (EC50) of 24.1 µM.

Consider `COC(=O)c1sccc1NC(=O)c1cccc(OC)c1` [methyl 3-[(3-methoxyphenyl)carbonylamino]thiophene-2-carboxylate], for which the EC50 was more than 300 µM.

Compound `Cc1ccc(CNS(=O)(=O)c2c(C)[nH]c(=O)[nH]c2=O)cc1` [MLS001200136] had an EC50 of more than 300 µM.
